Assay results: patent publication US8772323B2, “Benzoxazole- and tetrahydrobenzoxazole-substituted pyridazinones as GPR119 agonists” (Boehringer Ingelheim International GmbH, priority 2010, dated 2014)

Each compound was assayed against human GPR119 (Homo sapiens (Human), UniProt Q8TDV5) (assay: AlphaScreen cAMP assay in Min-6/hGPR119 cells (GPR119 activation, intracellular cAMP)). Details: MIN6 cells stably transfected with human GPR119; 45 minutes' incubation at RT; AlphaScreen cAMP Assay Kit.
Type: cell-based
Experimental: The compounds of formula I according to the invention are GPR119 agonists. The effect of the compounds on the activation of GPR119 and on the stimulation of intracellular cAMP concentration is determined using the AlphaScreen cAMP Assay Kit (Cat. No. #6760625R) made by PerkinElmer.
MIN6 cells [Miyazaki J et al. Endocrinology. 1990 July; 127(1):126-32] were stably transfected with an expression vector for human GPR119 cDNA (Acc. No. NP_848566). Min-6/hGPR119 cells are cultured in DMEM, 10% FBS, 50 μM β-mercaptoethanol, 0.3 mg/mL Geniticin, 2 mM GlutaMAX at 37° C. 5% CO2. For the assay, the cells are placed in Optiplates (white, 384-well, 160W-barcoded, TC, sterile with lid, Cat. No. #6007688 (Perkin Elmer); 10000 cells/well; 50 μl). The plates covered with lids are then incubated for 24 hours at 37° C./5% CO2.
After the medium has been sucked out of the wells completely, 10 μl of the test compound are added, the compounds are diluted beforehand with stimulating buffer (140 mM NaCl, 3.6 mM KCl, 0.5 mM NaH2PO4, 0.5 mM MgSO4, 1.5 mM CaCl2, 10 mM Hepes, 5 mM NaHCO3; pH 7.4. 0.5 mM IBMX and 0.1% BSA, the final DMSO concentration is 1%). After 45 minutes' incubation at RT, the cAMP concentrations are determined using the AlphaScreen cAMP Assay Kit (Cat. No. #6760625R from PerkinElmer).

human GPR119, sequence (Q8TDV5 whole entry): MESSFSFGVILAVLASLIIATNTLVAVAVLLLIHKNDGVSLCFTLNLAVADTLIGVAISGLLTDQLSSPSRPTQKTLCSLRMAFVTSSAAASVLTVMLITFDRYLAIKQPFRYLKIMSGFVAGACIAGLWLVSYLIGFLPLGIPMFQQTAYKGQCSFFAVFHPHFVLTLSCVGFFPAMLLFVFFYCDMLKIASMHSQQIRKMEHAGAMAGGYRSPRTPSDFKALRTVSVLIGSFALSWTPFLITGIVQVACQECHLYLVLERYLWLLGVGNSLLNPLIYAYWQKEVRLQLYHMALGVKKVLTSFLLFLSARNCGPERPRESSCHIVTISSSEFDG

SMILES | EC50 [µM]
CC1CC(=O)NN=C1c1ccc2nc(-c3cccc(CN)c3)oc2c1 (centres unmarked) [Example 125, 6-{2-[3-(aminomethyl)phenyl]1,3-benzoxazol-6-yl}-5-methyl-2,3,4,5-tetrahydropyridazin-3-one] | 1.6
CCC1CC(=O)NN=C1c1ccc2nc(-c3ccc(OCCC4CCCCC4)cc3)oc2c1 (centres unmarked) [Example 56, 6-{2-[4-(2-cyclohexyl-ethoxy)-phenyl]-benzoxazol-6-yl}-5-ethyl-4,5-dihydro-2H-pyridazin-3-one] | 0.17
CCC1CC(=O)NN=C1c1ccc2nc(-c3cccc(OCCN4CCCCCC4)c3)oc2c1 (centres unmarked) [Example 149, 6-{2-[3-(2-azepan-1-yl-ethoxy)-phenyl]-benzoxazol-6-yl}-5-ethyl-4,5-dihydro-2H-pyridazin-3-one] | 0.567
CCC1CC(=O)NN=C1c1ccc2nc(-c3ccc(OCc4cncn4C)cc3)oc2c1 (centres unmarked) [Example 42, 5-ethyl-6-{2-[4-(3-methyl-3H-imidazol-4-ylmethoxy)-phenyl]-benzoxazol-6-yl}-4,5-dihydro-2H-pyridazin-3-one] | 4.18
CCC1CC(=O)NN=C1c1ccc2nc(-c3ccc(N(C)C)cc3)oc2c1 (centres unmarked) [Example 96, 6-[2-(4-dimethylamino-phenyl)-benzoxazol-6-yl]-5-ethyl-4,5-dihydro-2H-pyridazin-3-one] | 0.042
COc1ccccc1-c1nc2ccc(C3=NNC(=O)CC3C)cc2o1 (centres unmarked) [Example 86, 6-[2-(2-methoxy-phenyl)-benzoxazol-6-yl]-5-methyl-4,5-dihydro-2H-pyridazin-3-one] | 1.15
Cc1ccc(-c2nc3ccc(C4=NNC(=O)C5CC45)cc3o2)cc1 (centres unmarked) [Example 13, 5-(2-p-tolyl-benzoxazol-6-yl)-3,4-diaza-bicyclo[4.1.0]hept-4-en-2-one] | 0.153
CCC1CC(=O)NN=C1c1ccc2nc(-c3ccc(OCCN4CCCCC4)cc3)oc2c1 (centres unmarked) [Example 49, 5-ethyl-6-{2-[4-(2-piperidin-1-yl-ethoxy)-phenyl]-benzoxazol-6-yl}-4,5-dihydro-2H-pyridazin-3-one] | 0.114
CC1(C)CC(c2ccc3nc(-c4ccccc4)oc3c2)=NNC1=O [Example 21, 4.4-dimethyl-6-(2-phenyl-benzoxazol-6-yl)-4,5-dihydro-2H-pyridazin-3-one] | > 10
CCC1CC(=O)NN=C1c1ccc2nc(-c3ccc(OCCN4CCC(C#N)CC4)cc3)oc2c1 (centres unmarked) [Example 163, 1-(2-{4-[6-(4-ethyl-6-oxo-1,4,5,6-tetrahydro-pyridazin-3-yl)-benzoxazol-2-yl]-phenoxy}-ethyl)-piperidin-4-carbonitrile] | 0.097
CC1CC(c2ccc3nc(-c4cccs4)oc3c2)=NNC1=O (centres unmarked) [Example 139, 4-methyl-6-(2-thiophen-2-yl-benzoxazol-6-yl)-4,5-dihydro-2H-pyridazin-3-one] | 1.56
CC1CC(=O)NN=C1c1ccc2nc(-c3cccc(OCc4ccccc4)c3)oc2c1 (centres unmarked) [Example 34, 6-[2-(3-benzyloxy-phenyl)-benzoxazol-6-yl]-5-methyl-4,5-dihydro-2H-pyridazin-3-one] | 0.193
CCC1CC(=O)NN=C1c1ccc2nc(-c3ccc(F)c(OC)c3)oc2c1 (centres unmarked) [Example 93, 5-ethyl-6-[2-(4-fluoro-3-methoxy-phenyl)-benzoxazol-6-yl]-4,5-dihydro-2H-pyridazin-3-one] | 0.397
CCC1CC(=O)NN=C1c1ccc2nc(-c3ccc(OCC(=O)NC)cc3)oc2c1 (centres unmarked) [Example 43, 2-{4-[6-(4-ethyl-6-oxo-1,4,5,6-tetrahydro-pyridazin-3-yl)-benzoxazol-2-yl]-phenoxy}-N-methyl-acetamide] | 1.07
Cc1cccc(-c2nc3ccc(C4=NNC(=O)C5CC45)cc3o2)c1 (centres unmarked) [Example 12, 5-(2-m-tolyl-benzoxazol-6-yl)-3,4-diaza-bicyclo[4.1.0]hept-4-en-2-one] | 0.246
CCC1CC(=O)NN=C1c1ccc2nc(-c3ccc(OC)c(F)c3)oc2c1 (centres unmarked) [Example 98, 5-ethyl-6-[2-(3-fluoro-4-methoxy-phenyl)-benzoxazol-6-yl]-4,5-dihydro-2H-pyridazin-3-one] | 0.294
CCC1CC(=O)NN=C1c1ccc2nc(-c3ccc(OCc4cncnc4)cc3)oc2c1 (centres unmarked) [Example 59, 5-ethyl-6-{2-[4-(pyrimidin-5-ylmethoxy)-phenyl]-benzoxazol-6-yl}-4,5-dihydro-2H-pyridazin-3-one] | 1.59
CCC1CC(=O)NN=C1c1ccc2nc(-c3ccc(OCc4cnco4)cc3)oc2c1 (centres unmarked) [Example 63, 5-ethyl-6-{2-[4-(oxazol-5-ylmethoxy)-phenyl]-benzoxazol-6-yl}-4,5-dihydro-2H-pyridazin-3-one] | 0.324
CC1CC(=O)NN=C1c1ccc2nc(-c3cccc(C#N)c3)oc2c1 (centres unmarked) [Example 123, 3-[6-(4-methyl-6-oxo-1,4,5,6-tetrahydropyridazin-3-yl)-1,3-benzoxazol-2-yl]benzonitrile] | 0.902
CCC1CC(=O)NN=C1c1ccc2nc(-c3ccc(OC(F)(F)F)cc3)oc2c1 (centres unmarked) [Example 103, 5-ethyl-6-[2-(4-trifluoromethoxy-phenyl)-benzoxazol-6-yl]-4,5-dihydro-2H-pyridazin-3-one] | 1.21
CCC1CC(=O)NN=C1c1ccc2nc(-c3ccc(OCCN4CCCCCC4)cc3)oc2c1 (centres unmarked) [Example 53, 6-{2-[4-(2-azepan-1-yl-ethoxy)-phenyl]-benzoxazol-6-yl}-5-ethyl-4,5-dihydro-2H-pyridazin-3-one] | 0.205
Cc1c(C2=NNC(=O)C3CC23)ccc2nc(-c3ccccc3)oc12 (centres unmarked) [Example 6, 5-(7-methyl-2-phenyl-benzoxazol-6-yl)-3,4-diaza-bicyclo[4.1.0]hept-4-en-2-one] | 1.7

The remaining lines, values ahead:

EC50 [µM] | SMILES
0.053 | CCC[C@H]1C(=O)NN=C(c2ccc3nc(-c4ccc(C)s4)oc3c2)[C@@H]1C (relative stereo) [Example 184, trans-5-methyl-6-[2-(5-methyl-thiophen-2-yl)-benzoxazol-6-yl]-4-propyl-4,5-dihydro-2H-pyridazin-3-one]
0.106 | CCC1CC(=O)NN=C1c1ccc2nc(-c3ccc(OCCN(CC)C(C)C)cc3)oc2c1 (centres unmarked) [Example 215, 5-ethyl-6-(2-{4-[2-(ethyl-isopropyl-amino)-ethoxy]-phenyl}-benzoxazol-6-yl)-4,5-dihydro-2H-pyridazin-3-one]
0.29 | CCC1CC(=O)NN=C1c1ccc2nc(-c3ccc(C(C)OC)cc3)oc2c1 (centres unmarked) [Example 180, 5-ethyl-6-{2-[4-(1-methoxy-ethyl)-phenyl]-benzoxazol-6-yl}-4,5-dihydro-2H-pyridazin-3-one]
0.414 | O=c1ccc(-c2ccc3nc(-c4ccccc4)oc3c2)n[nH]1 [Example 204, 6-(2-phenyl-1,3-benzoxazol-6-yl)-2,3-dihydropyridazin-3-one]
0.159 | CCC1CC(=O)NN=C1c1ccc2nc(-c3ccc(OCCN4CCC(F)CC4)cc3)oc2c1 (centres unmarked) [Example 248, 5-ethyl-6-(2-{4-[2-(4-fluoro-piperidin-1-yl)-ethoxy]-phenyl}-benzoxazol-6-yl)-4,5-dihydro-2H-pyridazin-3-one]
6.06 | CC[C@H]1CC(=O)NN=C1c1ccc2nc(-c3ccc(OC(C)C)cc3)oc2c1 [Example 192, (S)-5-ethyl-6-[2-(4-isopropoxy-phenyl)-benzoxazol-6-yl]-4,5-dihydro-2H-pyridazin-3-one]
0.197 | CCC1CC(=O)NN=C1c1ccc2nc(-c3ccc(OCCN4CCC(C)CC4)cc3)oc2c1 (centres unmarked) [Example 243, 5-ethyl-6-(2-{4-[2-(4-methyl-piperidin-1-yl)-ethoxy]-phenyl}-benzoxazol-6-yl)-4,5-dihydro-2H-pyridazin-3-one]
0.84 | CCC1CC(=O)NN=C1c1ccc2nc(-c3cccc(OCCN(CC)C(C)C)c3)oc2c1 (centres unmarked) [Example 218]
0.069 | CCC1CC(=O)NN=C1c1ccc2nc(-c3ccc(OCC(C)(C)N4CCOCC4)cc3)oc2c1 (centres unmarked) [Example 232, 5-ethyl-6-{2-[4-(2-methyl-2-morpholin-4-yl-propoxy)-phenyl]-benzoxazol-6-yl}-4,5-dihydro-2H-pyridazin-3-one]
0.108 | CC[C@H]1C(c2ccc3nc(-c4ccc(OC(C)C)cc4)oc3c2)=NNC(=O)[C@@H]1C (relative stereo) [Example 178, trans-5-ethyl-6-[2-(4-isopropoxy-phenyl)-benzoxazol-6-yl]-4-methyl-4,5-dihydro-2H-pyridazin-3-one]
0.037 | CCC[C@@H]1C(=O)NN=C(c2ccc3nc(-c4ccc(OC(C)C)cc4)oc3c2)[C@H]1C (relative stereo) [Example 171, trans-6-[2-(4-isopropoxy-phenyl)-benzoxazol-6-yl]-5-methyl-4-propyl-4,5-dihydro-2H-pyridazin-3-one]
0.134 | CCC[C@H]1C(=O)NN=C(c2ccc3nc(-c4cccs4)oc3c2)[C@@H]1C (relative stereo) [Example 183, trans-5-methyl-4-propyl-6-(2-thiophen-2-yl-benzoxazol-6-yl)-4,5-dihydro-2H-pyridazin-3-one]
0.319 | CCC1CC(=O)NN=C1c1ccc2nc(-c3ccc(O[C@@H]4CCCC[C@H]4N(CC)CC)cc3)oc2c1 (relative stereo) [Example 224, 6-{2-[4-(trans-2-diethylamino-cyclohexyloxy)-phenyl]-benzoxazol-6-yl}-5-ethyl-4,5-dihydro-2H-pyridazin-3-one]
